The source made the active and inactive calls. The rule behind the calls is not given here.
Assays:
[1] = tested on: HeLa; assay: Induction of apoptosis in human HeLa cells assessed as viable cells at 0.5 uM after 36 hrs by Annexin-V-FITC/propidium iodide staining based flow cytometry (reference value: 91%); format: functional; settings: read-out: Activity
[2] = tested on: HeLa; assay: Induction of apoptosis in human HeLa cells assessed as early apoptotic cells at 0.8 uM after 24 hrs by Annexin-V-FITC/propidium iodide staining based flow cytometry (reference value: 2.41%); format: functional
[3] = tested on: HeLa; assay: Cell cycle arrest in human HeLa cells assessed as accumulation at G2/M phase at 0.5 uM after 24 hrs by propidium iodide staining based flow cytometry (reference value: 8.14%); format: functional
[4] = tested on: HeLa; assay: Induction of apoptosis in human HeLa cells assessed as late apoptotic cells at 0.5 uM after 12 hrs by Annexin-V-FITC/propidium iodide staining based flow cytometry (reference value: 2.64%); format: functional
[5] = tested on: HeLa; assay: Cell cycle arrest in human HeLa cells assessed as accumulation at G1 phase at 0.1 uM after 24 hrs by propidium iodide staining based flow cytometry (reference value: 85.81%); format: functional
[6] = tested on: HeLa; assay: Induction of apoptosis in human HeLa cells assessed as necrotic cells at 0.5 uM after 12 hrs by Annexin-V-FITC/propidium iodide staining based flow cytometry (reference value: 0.35%); format: functional
[7] = tested on: HeLa; assay: Induction of apoptosis in human HeLa cells assessed as early apoptotic cells at 0.5 uM after 24 hrs by Annexin-V-FITC/propidium iodide staining based flow cytometry (reference value: 6.02%); format: functional
[8] = tested on: HeLa; assay: Cell cycle arrest in human HeLa cells assessed as accumulation at G2/M phase after 24 hrs by propidium iodide staining based flow cytometry; format: functional
[9] = tested on: HeLa; assay: Cell cycle arrest in human HeLa cells assessed as accumulation at G1 phase at 0.4 uM after 12 hrs by propidium iodide staining based flow cytometry (reference value: 85.81%); format: functional
[10] = tested on: HeLa; assay: Inhibition of microtubule polymerization in human HeLa cells assessed as effect on microtubule organization at 0.2 uM after 24 hrs by DAPI staining based confocal microscopic analysis; format: cell-based
[11] = tested on: HeLa; assay: Inhibition of microtubule polymerization in human HeLa cells at 0.2 uM after 24 hrs by DAPI staining based confocal microscopic analysis; format: cell-based
[12] = tested on: HeLa; assay: Cell cycle arrest in human HeLa cells assessed as accumulation at G1 phase at 0.2 uM after 12 hrs by propidium iodide staining based flow cytometry (reference value: 85.81%); format: functional
[13] = tested on: HeLa; assay: Induction of apoptosis in human HeLa cells assessed as late apoptotic cells at 0.5 uM after 36 hrs by Annexin-V-FITC/propidium iodide staining based flow cytometry (reference value: 2.64%); format: functional
[14] = tested on: HeLa; assay: Cell cycle arrest in human HeLa cells assessed as accumulation at S phase at 0.5 uM after 12 hrs by propidium iodide staining based flow cytometry (reference value: 33.78%); format: functional
[15] = tested on: HeLa; assay: Cell cycle arrest in human HeLa cells assessed as accumulation at S phase at 0.1 uM after 24 hrs by propidium iodide staining based flow cytometry (reference value: 49.41%); format: functional
[16] = tested on: HeLa; assay: Induction of apoptosis in human HeLa cells assessed as late apoptotic cells at 0.8 uM after 24 hrs by Annexin-V-FITC/propidium iodide staining based flow cytometry (reference value: 3.1%); format: functional
[17] = tested on: HeLa; assay: Inhibition of microtubule polymerization in human HeLa cells assessed as abnormal chromatin distribution at 0.2 uM after 24 hrs by DAPI staining based confocal microscopic analysis; format: cell-based
[18] = Inhibition of tubulin polymerization in bovine brain assessed as reduction in tubulin assembly after 20 mins by spectrophotometric method; design: species or system Bos taurus
[19] = tested on: HeLa; assay: Induction of apoptosis in human HeLa cells assessed as late apoptotic cells at 0.4 uM after 24 hrs by Annexin-V-FITC/propidium iodide staining based flow cytometry (reference value: 3.1%); format: functional
[20] = tested on: HeLa; assay: Cell cycle arrest in human HeLa cells assessed as accumulation at S phase at 0.5 uM after 36 hrs by propidium iodide staining based flow cytometry (reference value: 33.78%); format: functional
[21] = tested on: HeLa; assay: Induction of apoptosis in human HeLa cells assessed as necrotic cells at 0.1 uM after 24 hrs by Annexin-V-FITC/propidium iodide staining based flow cytometry (reference value: 0.084%); format: functional
[22] = tested on: HeLa; assay: Cell cycle arrest in human HeLa cells assessed as accumulation at G2/M phase at 0.5 uM by propidium iodide staining based flow cytometry; format: functional; settings: TDE = time-dependent effect
[23] = tested on: HeLa; assay: Induction of apoptosis in human HeLa cells assessed as viable cells at 0.5 uM after 12 hrs by Annexin-V-FITC/propidium iodide staining based flow cytometry (reference value: 91%); format: functional; settings: read-out: Activity
[24] = tested on: HeLa; assay: Induction of apoptosis in human HeLa cells assessed as necrotic cells at 0.8 uM after 24 hrs by Annexin-V-FITC/propidium iodide staining based flow cytometry (reference value: 0.084%); format: functional
[25] = tested on: HeLa; assay: Antiproliferative activity against human HeLa cells measured after 24 hrs by MTT assay; format: functional, cell-based
[26] = tested on: HeLa; assay: Cell cycle arrest in human HeLa cells assessed as accumulation at S phase at 0.4 uM after 12 hrs by propidium iodide staining based flow cytometry (reference value: 49.41%); format: functional
[27] = tested on: HeLa; assay: Cell cycle arrest in human HeLa cells assessed as accumulation at G1 phase at 0.8 uM after 12 hrs by propidium iodide staining based flow cytometry (reference value: 85.81%); format: functional

Question: With CCn1cc(C(=O)N2CCN(S(=O)(=O)c3c(C(C)C)cc(C(C)C)cc3C(C)C)CC2)c2ccccc21 as the compound, how does the viability at 0.5 µM [1] read?
Answer: 53.1%

Question: And the Activity [2]?
Answer: 32.6%

Question: And the Activity [3]?
Answer: 54.57%

Question: And the Activity [4]?
Answer: 3.97%

Question: And the Activity [5]?
Answer: 54.97%

Question: What about the Activity [6] of the same compound?
Answer: 0.03%

Question: What about the Activity [7] of the same compound?
Answer: 20.1%

Question: What about the Activity [8] of the same compound?
Answer: Dose-dependent effect

Question: And the Activity [9]?
Answer: 22.09%

Question: What about the inhibition [10] of the same compound?
Answer: Active

Question: And the inhibition [11]?
Answer: Active

Question: And the Activity [12]?
Answer: 31.86%

Question: What about the Activity [13] of the same compound?
Answer: 21.2%

Question: And the Activity [14]?
Answer: 51.97%

Question: What about the Activity [15] of the same compound?
Answer: 49.47%

Question: And the Activity [16]?
Answer: 22.4%

Question: And the inhibition [17]?
Answer: Active

Question: And the IC50 [18]?
Answer: 1820 nM

Question: What about the Activity [19] of the same compound?
Answer: 12.8%

Question: What about the Activity [20] of the same compound?
Answer: 53.25%

Question: What about the Activity [21] of the same compound?
Answer: 0.141%

Question: What about the Activity [22] of the same compound?
Answer: Tde

Question: And the viability at 0.5 µM [23]?
Answer: 87.9%

Question: And the Activity [24]?
Answer: 1.05%

Question: What about the IC50 [25] of the same compound?
Answer: 240 nM

Question: What about the Activity [26] of the same compound?
Answer: 40.08%

Question: And the Activity [27]?
Answer: 10.02%
